Laboratory results as given in ChEMBL document CHEMBL4609996, “Discovery of a novel 2,3-dimethylimidazo[1,2-a]pyrazine-6-carboxamide M4 positive allosteric modulator (PAM) chemotype” (Bioorg Med Chem Lett, 2020).

Columns and labels:
[1] = Hepatic clearance in rat; type: ADME; details: in vivo
[2] = Unbound brain-to-plasma concentration ratio in rat; type: ADME, cell-free; details: read-out: K(p,uu,brain)
[3] = Unbound fraction in human plasma; type: ADME, cell-free
[4] = Unbound fraction in rat brain; type: ADME, tissue-based
[5] = Hepatic clearance in human; type: ADME
[6] = Brain to plasma permeability coefficient, Kp of the compound in rat; type: ADME, cell-free
[7] = Unbound fraction in rat plasma; type: ADME, cell-free
[8] = target: T1, Muscarinic acetylcholine receptor M4 (Homo sapiens, UniProt P08173); assay: Positive allosteric modulation of human muscarinic M4 receptor expressed in CHO cells co-expressing Gqi5 assessed as increase in acetylcholine-induced calcium mobilization; type: functional, cell-based
T1 sequence (P08173 whole entry): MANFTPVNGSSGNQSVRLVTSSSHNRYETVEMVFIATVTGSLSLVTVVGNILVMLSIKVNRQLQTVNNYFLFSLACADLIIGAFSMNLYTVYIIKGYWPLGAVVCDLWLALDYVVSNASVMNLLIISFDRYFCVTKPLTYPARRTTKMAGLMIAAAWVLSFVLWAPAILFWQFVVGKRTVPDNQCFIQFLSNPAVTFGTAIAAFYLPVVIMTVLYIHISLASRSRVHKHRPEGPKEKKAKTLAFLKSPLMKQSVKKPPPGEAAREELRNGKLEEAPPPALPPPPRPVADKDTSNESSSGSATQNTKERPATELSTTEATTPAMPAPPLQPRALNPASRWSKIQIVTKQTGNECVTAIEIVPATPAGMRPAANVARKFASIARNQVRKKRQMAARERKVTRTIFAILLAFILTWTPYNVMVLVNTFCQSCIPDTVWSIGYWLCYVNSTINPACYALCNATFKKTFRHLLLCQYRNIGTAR

[9] = Intrinsic clearance in rat microsomes; type: ADME, Microsome
[10] = target: T2, Muscarinic acetylcholine receptor M4 (Rattus norvegicus, UniProt P08485); assay: Positive allosteric modulation of rat muscarinic M4 receptor
T2 sequence (P08485 whole entry): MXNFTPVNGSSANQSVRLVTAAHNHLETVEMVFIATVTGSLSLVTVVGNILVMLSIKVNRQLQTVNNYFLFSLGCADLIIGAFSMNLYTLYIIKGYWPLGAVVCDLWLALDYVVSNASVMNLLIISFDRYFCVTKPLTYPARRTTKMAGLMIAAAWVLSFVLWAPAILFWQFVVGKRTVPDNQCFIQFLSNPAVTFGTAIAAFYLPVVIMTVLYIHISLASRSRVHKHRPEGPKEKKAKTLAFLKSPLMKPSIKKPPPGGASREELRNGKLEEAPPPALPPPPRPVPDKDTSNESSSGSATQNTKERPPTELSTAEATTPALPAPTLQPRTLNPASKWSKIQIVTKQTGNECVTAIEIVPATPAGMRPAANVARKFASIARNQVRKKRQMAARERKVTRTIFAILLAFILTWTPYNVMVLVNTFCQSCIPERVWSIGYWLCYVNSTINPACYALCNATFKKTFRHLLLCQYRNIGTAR

[11] = Intrinsic clearance in human microsomes; type: ADME, Microsome

Q: With `Cc1c2cc(C(=O)NC3CN(c4cc(Cl)ncc4Cl)C3)ccc2nn1C` as the compound, how does the CLH [1] read?
A: Its CLH is 20 mL/min/kg.

Q: And the Kp uu [2]?
A: Its Kp uu is 0.04.

Q: What about the fraction unbound [3] of the same compound?
A: Its fraction unbound is 0.043.

Q: And the fraction unbound [4]?
A: The fraction unbound was 0.032.

Q: And the CLH [5]?
A: The CLH was 13 mL/min/kg.

Q: And the Kp [6]?
A: Its Kp is 0.05.

Q: And the fraction unbound [7]?
A: Its fraction unbound is 0.042.

Q: For `Cn1nnc2ccc(C(=O)NC3CN(c4cc(Cl)ncc4Cl)C3)cc21`, which CLH [1] is on record?
A: Its CLH is 8.7 mL/min/kg.

Q: What about the Kp uu [2] of the same compound?
A: Its Kp uu is less than 0.11.

Q: And the fraction unbound [3]?
A: The fraction unbound was 0.132.

Q: And the fraction unbound [4]?
A: The fraction unbound was 0.053.

Q: What about the CLH [5] of the same compound?
A: Its CLH is 21 mL/min/kg.

Q: What about the Kp [6] of the same compound?
A: Its Kp is less than 0.05.

Q: And the fraction unbound [7]?
A: The fraction unbound was 0.024.

Q: For `Cc1c2cc(F)c(C(=O)NC3CN(c4cc(Cl)ncc4Cl)C3)cc2nn1C`, which EC50 ([8]; cho) is on record?
A: Its EC50 is “Not Active”.

Q: Which EC50 ([8]; cho) does the source give for `Cn1nc2ccc(C(=O)NC3CN(c4cc(Cl)ncc4Cl)C3)cc2c1C1CC1` here?
A: The EC50 was “Not Active”.

Q: With `CCn1nc2ccc(C(=O)NC3CN(c4cc(Cl)ncc4Cl)C3)cc2c1C` as the compound, how does the EC50 ([8]; cho) read?
A: Its EC50 is “Not Active”.

Q: For `COc1cc(N2CC(NC(=O)c3ccc4nnc(C)n4c3)C2)c(Cl)cn1`, which EC50 ([8]; read-out: EC50) is on record?
A: Its EC50 is greater than 10000 nM.

Q: For `COc1cc(N2CC(NC(=O)c3cn4c(C)c(C)nc4cn3)C2)c(Cl)cn1`, which CLint scaled [9] is on record?
A: The CLint scaled was 83 mL/min/kg.

Q: What about the EC50 [10] of the same compound?
A: The EC50 was 295 nM.

Q: What about the Kp uu [2] of the same compound?
A: Its Kp uu is less than 1.33.

Q: And the fraction unbound [3]?
A: The fraction unbound was 0.045.

Q: What about the fraction unbound [4] of the same compound?
A: Its fraction unbound is 0.021.

Q: What about the Kp [6] of the same compound?
A: The Kp was less than 1.08.

Q: What about the fraction unbound [7] of the same compound?
A: Its fraction unbound is 0.017.

Q: What about the CLint scaled [11] of the same compound?
A: The CLint scaled was 25 mL/min/kg.

Q: Which EC50 ([8]; cho) does the source give for `COc1cc(N2CC(NC(=O)c3ccc4snc(C)c4c3)C2)c(Cl)cn1` here?
A: Its EC50 is “Not Active”.

Q: Which CLint scaled [9] does the source give for `Cc1c2cc(C(=O)NC3CN(c4cc(Cl)ncc4Cl)C3)ncc2nn1C` here?
A: The CLint scaled was 59 mL/min/kg.

Q: And the EC50 [10]?
A: Its EC50 is 331 nM.

Q: And the Kp uu [2]?
A: The Kp uu was 0.41.

Q: What about the fraction unbound [3] of the same compound?
A: The fraction unbound was 0.014.

Q: And the fraction unbound [4]?
A: The fraction unbound was 0.03.

Q: And the Kp [6]?
A: Its Kp is 0.3.

Q: And the fraction unbound [7]?
A: The fraction unbound was 0.022.

Q: What about the CLint scaled [11] of the same compound?
A: The CLint scaled was 26 mL/min/kg.

Q: For `Cc1nc2ccc(C(=O)NC3CN(c4cc(Cl)ncc4Cl)C3)cn2c1C`, which CLint scaled [9] is on record?
A: Its CLint scaled is 130 mL/min/kg.

Q: And the EC50 [10]?
A: Its EC50 is 433 nM.

Q: And the Kp uu [2]?
A: Its Kp uu is 0.21.

Q: And the fraction unbound [3]?
A: The fraction unbound was 0.03.

Q: What about the fraction unbound [4] of the same compound?
A: The fraction unbound was 0.027.

Q: What about the Kp [6] of the same compound?
A: The Kp was 0.1.

Q: And the fraction unbound [7]?
A: Its fraction unbound is 0.013.

Q: And the CLint scaled [11]?
A: The CLint scaled was 39 mL/min/kg.

Q: For `Cn1c(C(F)(F)F)nc2ccc(C(=O)NC3CN(c4cc(Cl)ncc4Cl)C3)cc21`, which EC50 [10] is on record?
A: The EC50 was 378 nM.

Q: Which EC50 ([8]; cho) does the source give for `Cc1c2nc(C(=O)NC3CN(c4cc(Cl)ncc4Cl)C3)ccc2nn1C` here?
A: The EC50 was “Not Active”.

Q: Which CLint scaled [9] does the source give for `COc1cc(N2CC(NC(=O)c3cc4c(C)n(C)nc4cn3)C2)c(Cl)cn1` here?
A: Its CLint scaled is 33 mL/min/kg.

Q: What about the EC50 [10] of the same compound?
A: The EC50 was 339 nM.

Q: And the Kp uu [2]?
A: The Kp uu was 0.97.

Q: And the fraction unbound [3]?
A: Its fraction unbound is 0.017.

Q: And the fraction unbound [4]?
A: Its fraction unbound is 0.032.

Q: What about the Kp [6] of the same compound?
A: Its Kp is 0.67.

Q: What about the fraction unbound [7] of the same compound?
A: Its fraction unbound is 0.022.

Q: And the CLint scaled [11]?
A: Its CLint scaled is 28 mL/min/kg.

Q: Which EC50 ([8]; cho) does the source give for `Cn1nc2ccc(C(=O)NC3CN(c4cc(Cl)ncc4Cl)C3)cc2c1C(F)F` here?
A: The EC50 was “Not Active”.

Q: Which EC50 ([8]; cho) does the source give for `Cc1noc2ccc(C(=O)NC3CN(c4cc(Cl)ncc4Cl)C3)cc12` here?
A: Its EC50 is “Not Active”.

Q: Which EC50 ([8]; cho) does the source give for `COc1cc(N2CC(NC(=O)c3ccc4onc(C)c4c3)C2)c(Cl)cn1` here?
A: The EC50 was “Not Active”.

Q: Which EC50 ([8]; cho) does the source give for `COc1cc(N2CC(NC(=O)c3ccc4c(c3)c(C)nn4C)C2)c(Cl)cn1` here?
A: The EC50 was “Not Active”.

Q: With `COc1cc(N2CC(NC(=O)c3cc4nn(C)c(C)c4cc3F)C2)c(Cl)cn1` as the compound, how does the EC50 ([8]; cho) read?
A: The EC50 was “Not Active”.

Q: Which EC50 ([8]; read-out: EC50) does the source give for `Cc1nnc2ccc(C(=O)NC3CN(c4cc(Cl)ncc4Cl)C3)cn12` here?
A: The EC50 was greater than 10000 nM.

Q: For `Cn1nc2ccc(C(=O)NC3CN(c4cc(Cl)ncc4Cl)C3)cc2c1C(F)(F)F`, which EC50 ([8]; cho) is on record?
A: Its EC50 is “Not Active”.

Q: For `COc1cc(N2CC(NC(=O)c3ccc4sc(C)nc4c3)C2)c(Cl)cn1`, which EC50 ([8]; cho) is on record?
A: The EC50 was “Not Active”.

Q: For `COc1cc(N2CC(NC(=O)c3ccc4nn(C)c(C)c4n3)C2)c(Cl)cn1`, which EC50 ([8]; cho) is on record?
A: The EC50 was “Not Active”.

Q: With `Cc1nc2ccc(C(=O)NC3CN(c4cc(Cl)ncc4Cl)C3)nn2c1C` as the compound, how does the EC50 ([8]; cho) read?
A: Its EC50 is “Not Active”.

Q: For `COc1cc(N2CC(NC(=O)c3ccc4nc(C)c(C)n4n3)C2)c(Cl)cn1`, which EC50 ([8]; cho) is on record?
A: Its EC50 is “Not Active”.

Q: With `Cc1nsc2ccc(C(=O)NC3CN(c4cc(Cl)ncc4Cl)C3)cc12` as the compound, how does the EC50 ([8]; cho) read?
A: Its EC50 is “Not Active”.

Q: Which CLint scaled [9] does the source give for `Cc1nn(C)c2cnc(C(=O)NC3CN(c4cc(Cl)ncc4Cl)C3)cc12` here?
A: The CLint scaled was 85 mL/min/kg.

Q: What about the Kp uu [2] of the same compound?
A: Its Kp uu is less than 0.45.

Q: What about the fraction unbound [3] of the same compound?
A: The fraction unbound was 0.039.

Q: And the fraction unbound [4]?
A: Its fraction unbound is 0.021.

Q: And the Kp [6]?
A: The Kp was less than 0.24.

Q: What about the fraction unbound [7] of the same compound?
A: The fraction unbound was 0.011.

Q: And the CLint scaled [11]?
A: The CLint scaled was 28 mL/min/kg.

Q: What does the source list for `Cc1nc2cnc(C(=O)NC3CN(c4cc(Cl)ncc4Cl)C3)cn2c1C`?
A: CLint scaled [9]: 96 mL/min/kg; EC50 [10]: 233 nM; Kp uu [2]: 1.09; fraction unbound [3]: 0.04; fraction unbound [4]: 0.034; Kp [6]: 0.29; fraction unbound [7]: 0.009; CLint scaled [11]: 33 mL/min/kg
